Reference: ChEMBL document CHEMBL5214935, “Discovery of a potent M5 antagonist with improved clearance profile. Part 1: Piperidine amide-based antagonists” (Bioorg Med Chem Lett, 2022)
Numbering of substitutions follows the chain as printed.

How the values were obtained:
[1] = Intrinsic clearance in human; assay type: ADME
[2] = target: T1, Muscarinic acetylcholine receptor M5 (Homo sapiens) (UniProt P08912); test: Antagonist activity at human muscarinic M5 receptor expressed in CHO cells assessed as minimal acetylcholine response by calcium mobilisation assay relative to control; assay type: functional, cell-based; parameters: concentration or dose not given beside the values
T1 sequence (whole entry): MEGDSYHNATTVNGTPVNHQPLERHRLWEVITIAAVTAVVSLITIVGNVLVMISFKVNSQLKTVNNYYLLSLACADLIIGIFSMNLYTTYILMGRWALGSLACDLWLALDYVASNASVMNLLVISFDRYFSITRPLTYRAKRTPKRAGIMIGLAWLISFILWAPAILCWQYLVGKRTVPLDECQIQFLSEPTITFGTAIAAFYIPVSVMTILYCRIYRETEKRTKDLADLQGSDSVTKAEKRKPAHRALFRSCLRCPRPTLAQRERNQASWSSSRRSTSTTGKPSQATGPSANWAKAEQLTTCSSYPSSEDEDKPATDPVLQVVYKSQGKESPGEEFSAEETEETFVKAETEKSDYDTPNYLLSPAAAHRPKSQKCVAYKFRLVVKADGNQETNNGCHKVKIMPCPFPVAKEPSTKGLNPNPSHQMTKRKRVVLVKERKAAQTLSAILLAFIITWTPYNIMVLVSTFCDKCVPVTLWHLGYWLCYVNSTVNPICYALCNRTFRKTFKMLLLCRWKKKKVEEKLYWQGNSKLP

[3] = Intrinsic clearance in rat; assay type: ADME
[4] = target: T2, Muscarinic acetylcholine receptor M5 (Homo sapiens, UniProt P08912); test: Antagonist activity at human muscarinic M5 receptor expressed in CHO cells in the presence of acetylcholine by calcium mobilisation assay; assay type: functional, cell-based
T2 sequence (P08912 whole entry): T1 sequence (whole entry)

[5] = target: T3, Muscarinic acetylcholine receptor M1 (Rattus norvegicus, UniProt P08482); test: Antagonist activity at rat muscarinic M1 receptor expressed in CHO cells in the presence of acetylcholine by calcium mobilisation assay; assay type: functional, cell-based
T3 sequence (P08482 whole entry): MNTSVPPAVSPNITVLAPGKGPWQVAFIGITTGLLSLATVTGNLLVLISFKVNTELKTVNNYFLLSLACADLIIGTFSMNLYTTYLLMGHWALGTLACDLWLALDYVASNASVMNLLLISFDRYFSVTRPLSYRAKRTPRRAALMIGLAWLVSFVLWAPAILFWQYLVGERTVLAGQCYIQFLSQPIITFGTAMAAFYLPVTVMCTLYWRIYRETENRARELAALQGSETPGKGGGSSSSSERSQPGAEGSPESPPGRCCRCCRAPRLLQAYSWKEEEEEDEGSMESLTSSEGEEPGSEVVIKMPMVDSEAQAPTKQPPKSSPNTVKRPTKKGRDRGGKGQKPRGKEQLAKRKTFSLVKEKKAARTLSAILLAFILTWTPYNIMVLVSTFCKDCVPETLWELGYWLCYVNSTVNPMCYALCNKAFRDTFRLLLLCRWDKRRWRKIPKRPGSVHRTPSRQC

[6] = Unbound fraction in human plasma; assay type: ADME, cell-free
[7] = target: T4, Muscarinic acetylcholine receptor M1 (Rattus norvegicus) (UniProt P08482); test: Antagonist activity at rat muscarinic M1 receptor expressed in CHO cells assessed as minimal acetylcholine response by calcium mobilisation assay relative to control; assay type: functional, cell-based; parameters: scale not given: the % may be the effect or the level left; settings: filed as antagonist
T4 sequence (whole entry): T3 sequence (P08482 whole entry)

[8] = Unbound fraction in rat brain; assay type: ADME, tissue-based
[9] = Unbound fraction in rat plasma; assay type: ADME, cell-free
[10] = target: T5, Muscarinic acetylcholine receptor M1 (Homo sapiens, UniProt P11229); test: Antagonist activity at human muscarinic M1 receptor; assay type: functional
T5 sequence (P11229 whole entry): T3 sequence (P08482 whole entry) with V5A, S254T, S309P, K320R, G337A, V413I

[11] = target: T6, Muscarinic acetylcholine receptor M5 (Rattus norvegicus, UniProt P08911); test: Antagonist activity at rat muscarinic M5 receptor; assay type: functional
T6 sequence (P08911 whole entry): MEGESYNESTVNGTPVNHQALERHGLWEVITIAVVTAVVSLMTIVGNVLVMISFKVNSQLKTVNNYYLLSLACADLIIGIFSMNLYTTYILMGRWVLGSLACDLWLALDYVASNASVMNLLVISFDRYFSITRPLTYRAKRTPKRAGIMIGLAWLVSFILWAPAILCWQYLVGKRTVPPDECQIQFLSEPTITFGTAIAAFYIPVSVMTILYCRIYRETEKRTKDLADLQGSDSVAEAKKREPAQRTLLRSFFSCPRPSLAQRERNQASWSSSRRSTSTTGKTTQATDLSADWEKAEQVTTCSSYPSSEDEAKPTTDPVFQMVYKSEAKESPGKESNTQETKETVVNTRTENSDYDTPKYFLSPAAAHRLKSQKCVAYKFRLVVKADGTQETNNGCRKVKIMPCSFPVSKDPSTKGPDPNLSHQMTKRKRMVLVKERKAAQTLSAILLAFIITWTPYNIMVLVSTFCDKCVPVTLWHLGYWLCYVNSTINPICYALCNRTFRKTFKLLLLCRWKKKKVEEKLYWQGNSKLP

[12] = Apparent permeability in MDCK-MDR1 cells; assay type: ADME, cell-based, Canis lupus familiaris; settings: dog
[13] = target: T5, Muscarinic acetylcholine receptor M1; test: Antagonist activity at human muscarinic M1 receptor expressed in CHO cells in the presence of acetylcholine by calcium mobilisation assay; assay type: functional, cell-based
[14] = tested on: P-glycoprotein (human); test: Efflux ratio of permeability in MDCK-MDR1 cells expressing human P-glycoprotein; assay type: ADME, cell-based, Canis lupus familiaris; settings: dog
[15] = Clearance in rat plasma; assay type: ADME, cell-free
[16] = target: T7, Muscarinic acetylcholine receptor M1 (Homo sapiens) (UniProt P11229); test: Antagonist activity at human muscarinic M1 receptor expressed in CHO cells assessed as minimal acetylcholine response by calcium mobilisation assay; assay type: functional, cell-based; parameters: scale not given: the % may be the effect or the level left
T7 sequence (whole entry): T3 sequence (P08482 whole entry) with V5A, S254T, S309P, K320R, G337A, V413I

[17] = Volume of distribution at steady state in rat; assay type: ADME; settings: in vivo, read-out: Vdss
[18] = Elimination half life in rat; assay type: ADME; settings: in vivo, read-out: beta t1/2
[19] = target: T8, Muscarinic acetylcholine receptor M5 (Rattus norvegicus) (UniProt P08911); test: Antagonist activity at rat muscarinic M5 receptor assessed as minimal acetylcholine response relative to control; assay type: functional; parameters: scale not given: the % may be the effect or the level left; settings: filed as antagonist
T8 sequence (whole entry): T6 sequence (P08911 whole entry)

Structure (SMILES)	CLint scaled [1] [mL/min/kg]	Activity ([2]; filed as antagonist) [%]	CLint scaled [3] [mL/min/kg]	IC50 [4] [nM]	further results
O=C(Nc1ccc2scnc2c1)C1CCN(S(=O)(=O)c2cccnc2)CC1	19	2	207	59	–
Cc1ncc(S(=O)(=O)N2CC[C@H](C(=O)Nc3ccc4scnc4c3)[C@@H](F)C2)s1 (racemic)	6	2	81	13	IC50 [5]: 300 nM; Fu [6]: 0.02; Activity [7]: 3%; fraction unbound [8]: 0.06; Fu [9]: 0.007
O=C(Nc1ccc2cccnc2c1)C1CCN(S(=O)(=O)c2ccc3c(c2)CCO3)CC1	99	3	740	–	–
CN(C(=O)C1CCN(S(=O)(=O)c2ccc3c(c2)CCO3)CC1)c1ccc2scnc2c1	–	–	–	–	Activity [2]: 51%
Cc1nc2cc(NC(=O)C3CCN(S(=O)(=O)c4ccc5c(c4)CCO5)CC3)ccc2s1	74	19	426	594	–
Cc1ccc(S(=O)(=O)N2CCC(C(=O)Nc3ccc4scnc4c3)CC2)cn1	5	3	43	–	–
Cn1ncc(S(=O)(=O)N2CC[C@H](C(=O)Nc3ccc4scnc4c3)[C@@H](F)C2)c1Cl (racemic)	6	2	49	10	IC50 [5]: 110 nM; Fu [6]: 0.02; Activity [7]: 3%; fraction unbound [8]: 0.05; Fu [9]: 0.005
CC1COc2ccc(S(=O)(=O)N3CCC(C(=O)Nc4ccc5scnc5c4)CC3)cc21 (racemic)	263	3	1020	109	–
C[C@@H]1C[C@@H](C(=O)Nc2ccc3scnc3c2)CCN1S(=O)(=O)c1ccc2c(c1)CCO2 (racemic)	114	3	520	94	–
O=C(Nc1ccc2scnc2c1)C1CCN(S(=O)(=O)c2ccc3ncsc3c2)CC1	36	2	81	266	–
CC1Cc2cc(S(=O)(=O)N3CCC(C(=O)Nc4ccc5scnc5c4)CC3)ccc2O1 (racemic)	–	16	–	> 10000	–
C[C@@H]1CN(S(=O)(=O)c2ccc3c(c2)CCO3)CC[C@@H]1C(=O)Nc1ccc2scnc2c1 (racemic)	199	3	550	419	–

More lines, main results first:

CLint scaled [1] [mL/min/kg]	Activity ([2]; filed as antagonist) [%]	CLint scaled [3] [mL/min/kg]	IC50 [4] [nM]	Structure (SMILES)	further results
–	–	–	2800	O=C(Nc1ccc2scnc2c1)C1CCN(S(=O)(=O)c2ccc(Cl)s2)CC1	IC50 [10]: > 10000 nM
20	2	212	–	O=C(Nc1ccc2scnc2c1)C1CCN(S(=O)(=O)c2ccc3ncccc3c2)CC1	–
264	2	572	134	C[C@@H]1C[C@H](C(=O)Nc2ccc3scnc3c2)CCN1S(=O)(=O)c1ccc2c(c1)CCO2 (racemic)	–
108	10	804	143	O=C(Nc1ccc2snnc2c1)C1CCN(S(=O)(=O)c2ccc3c(c2)CCO3)CC1	–
79	3	506	1530	C[C@H]1CN(S(=O)(=O)c2ccc3c(c2)CCO3)CC[C@@H]1C(=O)Nc1ccc2scnc2c1 (racemic)	–
5	2	45	–	Cc1nn(C)cc1S(=O)(=O)N1CCC(C(=O)Nc2ccc3scnc3c2)CC1	IC50 [5]: > 10000 nM; IC50 [11]: 1330 nM; Papp [12]: 0.374 10^-6 cm/s; Fu [6]: 0.14; Activity [7]: 35%; fraction unbound [8]: 0.2; IC50 [13]: > 10000 nM; efflux ratio [14]: 110; clearance [15]: 11.1 mL/min/kg; Activity [16]: 50%; Vd [17]: 0.61 L/kg; half-life [18]: 1.43 h; Activity [19]: 4%; Fu [9]: 0.03
7	3	260	309	Cc1nn(C)cc1S(=O)(=O)N1CC[C@H](C(=O)Nc2ccc3scnc3c2)[C@@H](F)C1 (racemic)	IC50 [11]: 572 nM; Papp [12]: 0.431 10^-6 cm/s; Fu [6]: 0.26; fraction unbound [8]: 0.17; IC50 [13]: > 10000 nM; efflux ratio [14]: 110; Activity [16]: 51%; Activity [19]: 3%; Fu [9]: 0.02
21	3	62	168	O=C(Nc1ccc2scnc2c1)C1CCN(S(=O)(=O)c2ccc(Cl)nc2)CC1	–
–	–	373	–	O=C(Nc1ccc2scnc2c1)C1CCN(S(=O)(=O)c2ccc3c(c2)CCO3)CC1	IC50 [11]: 249 nM; IC50 [10]: 2140 nM
